This note sets out measurements from ChEMBL document CHEMBL1153449, “A new synthesis and an antiviral assessment of the 4'-fluoro derivative of 4'-deoxy-5'-noraristeromycin” (Bioorg Med Chem, 2009).

≈ marks a conversion by molar mass, not a printed value. Calls of active or inactive are those of the source. The rule behind the calls is not given here.

The subject of one test is Cytomegalovirus. Put plainly: Antiviral activity against Cytomegalovirus. The class given is functional, organism-based.
Test [1] deals with Measles morbillivirus. Put plainly: Antiviral activity against Measles virus. The format is functional, organism-based.
Test [2] concerns Measles morbillivirus. As to the kind of experiment: Antiviral activity against Measles virus by neutral red assay. The format is functional, organism-based.
The test system of the next test is Vaccinia virus. Put plainly: Antiviral activity against Vaccinia virus. The conditions noted are these: Orthopoxvirus vaccinia. The class given is functional, organism-based.
In another test the test system is Cowpox virus. Put plainly: Antiviral activity against Cowpox virus. The format is functional, organism-based.
Test [3] in a line: Cytotoxicity against african green monkey CV1 cells. The format is cell-based. The following applies: Chlorocebus aethiops, CV-1.

Consider `Nc1ncnc2c1ncn2[C@@H]1C[C@H](F)[C@@H](O)[C@H]1O`, for which the outcome in the test with Cytomegalovirus, in the test on Vaccinia virus and in the test with Cowpox virus was inactive. The values for the IC50 (in the test on Measles morbillivirus [1]; with Measles morbillivirus [2]; in test [3]) were 14 µg/mL (≈ 55.3 µM), 1.2 µg/mL (≈ 4.74 µM) and 21 µg/mL (≈ 82.9 µM), respectively.
Consider `Nc1ncnc2c1ncn2[C@@H]1CC(F)(F)[C@@H](O)[C@H]1O`, for which the outcome in the test on Cytomegalovirus, in the test on Vaccinia virus and in the test on Cowpox virus was Active.
